We go through twelve compounds from US20250115597A1, “TYK2 INHIBITORS AND COMPOSITIONS AND METHODS THEREOF” (LYNK PHARMACEUTICALS CO. LTD., priority 2021, published 2025).

Where two headings read alike, the source gives them in different places. Bounds are passed on as bounds.

The target in data set [1] is T1, Ba/F3-FL-TYK2-P760L cells (Homo sapiens, UniProt P29597, P760L, cells depend on it).
T1 construct: BaF3-FL-T2P760L (nM)
The experiment in a line: Anti-proliferative assay, Ba/F3-FL-TYK2-P760L cells (Cell-Titer Glo). It counts as cell-based. The settings on record: 72 h, read-out: BaF3-FL-T2P760L IC50. The procedure, abridged: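 Ba/F3 cells made IL-3-independent by TEL-fused or full-length mutant JAK-family kinases, seeded at 2000/well and dosed after 24 h with 9 three-fold dilutions topping at 20 μM. Viability after 72 h at 37 °C, 5% CO2 by Cell-Titer Glo ATP luminescence.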

Data set [2] in a line: Microsomal metabolic stability assay. It counts as in vitro ADME. The settings on record: pH 7.4, 0.5 mg/mL protein, 1 μM compound. Here is the method:
Microsomal Metabolic Stability Assay
Microsomes were pre-incubated with test compound or control compounds for 5 min at 37° C. in 100 mM potassium phosphate buffer, pH 7.4, 1.0 mM EDTA. The reaction was initiated by addition of 15 μL of the NADPH regenerating system to 30 μL of each incubation mixture per time point. The final incubation condition was composed of 0.5 mg/mL microsomal protein, 1 μM test article/positive control, 2 mM NADPH. The 0-minute samples were prepared by addition of a 30 μL aliquot of each incubation mixture to 135 μL quench reagent to precipitate proteins. And then a 15 μL aliquot of the NADPH regenerating system was added. At 5, 15, 30 and 45 minutes, the reaction will be stopped by the addition of cold acetonitrile solution containing internal standard. The samples taken at all time points were centrifuged at 5000×g for 15 minutes. 50 μL of supernatant are taken into 96-well assay plates pre-added with 50 μL ultrapure water, and then analyzed by LC/MS/MS.
Concentrations of test articles, control compounds in the samples were determined by using LC/MS/MS method. Plotting of the chromatograms and peak area integrations are carried out by Analyst (AB Sciex).
n the determination of the in vitro elimination constant (ke) of the control compounds, the analyte/internal standard peak area ratios will be converted to percentage remaining (% Remaining) with the following equation: […]
The slope was measured by the natural logarithm of the percentage of the residual compound and time, T1/2 was calculated according to the following formula.

[3] abbreviates: dog liver microsomes, read-out: Dog LM Clint.
Setting [4] is: dog liver microsomes, read-out: Dog LM T½.
Where [5] appears, read: human liver microsomes, read-out: Human LM Clint.
[6] abbreviates: human liver microsomes, read-out: Human LM T½.
The mark [7] stands for this setting: rat liver microsomes, read-out: Rat LM Clint.
Where [8] appears, read: rat liver microsomes, read-out: Rat LM T½.

T1 sequence (P29597 whole entry P760L): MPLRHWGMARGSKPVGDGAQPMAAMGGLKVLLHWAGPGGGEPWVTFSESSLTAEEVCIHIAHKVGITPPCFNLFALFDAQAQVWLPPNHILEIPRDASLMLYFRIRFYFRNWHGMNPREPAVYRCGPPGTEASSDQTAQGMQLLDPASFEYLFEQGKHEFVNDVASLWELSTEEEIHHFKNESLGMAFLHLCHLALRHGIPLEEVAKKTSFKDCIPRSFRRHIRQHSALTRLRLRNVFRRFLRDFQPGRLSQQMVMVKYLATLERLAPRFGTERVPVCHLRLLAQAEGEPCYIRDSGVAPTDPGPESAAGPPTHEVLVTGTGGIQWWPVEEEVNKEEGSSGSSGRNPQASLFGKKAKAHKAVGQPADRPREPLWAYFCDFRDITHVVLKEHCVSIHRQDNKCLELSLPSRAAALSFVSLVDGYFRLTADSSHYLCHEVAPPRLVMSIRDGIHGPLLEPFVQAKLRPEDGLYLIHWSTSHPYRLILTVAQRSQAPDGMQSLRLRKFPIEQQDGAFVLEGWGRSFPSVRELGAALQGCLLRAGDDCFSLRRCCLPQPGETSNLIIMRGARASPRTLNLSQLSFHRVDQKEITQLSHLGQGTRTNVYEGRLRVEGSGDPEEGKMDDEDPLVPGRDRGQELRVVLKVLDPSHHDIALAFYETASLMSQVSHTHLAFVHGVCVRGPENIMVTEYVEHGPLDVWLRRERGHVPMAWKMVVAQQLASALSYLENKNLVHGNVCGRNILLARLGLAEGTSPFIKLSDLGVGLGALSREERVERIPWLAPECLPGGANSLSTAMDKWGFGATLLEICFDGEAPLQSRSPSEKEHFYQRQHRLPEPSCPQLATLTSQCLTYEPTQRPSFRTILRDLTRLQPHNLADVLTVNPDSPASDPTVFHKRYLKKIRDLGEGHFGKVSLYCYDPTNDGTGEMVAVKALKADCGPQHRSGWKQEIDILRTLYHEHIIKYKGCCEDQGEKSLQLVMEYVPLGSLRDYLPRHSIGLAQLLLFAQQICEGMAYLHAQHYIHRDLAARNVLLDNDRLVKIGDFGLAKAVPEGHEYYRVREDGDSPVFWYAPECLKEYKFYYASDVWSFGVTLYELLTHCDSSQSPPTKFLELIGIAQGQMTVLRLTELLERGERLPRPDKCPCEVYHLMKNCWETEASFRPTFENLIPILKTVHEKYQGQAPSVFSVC

With `[2H]C([2H])([2H])NC(=O)c1nnc2cc1Nc1cc(cc(-c3ncn(C4CC4)n3)c1OC)COCc1nc(ccc1F)N2` [Example 82, 11-(1-Cyclopropyl-1H-1,2,4-triazol-3-yl)-18-fluoro-10-methoxy-N-(methyl-d3)-15-oxa-2,4,5,8,21-pentaazatetracyclo[15.3.1.1^{3,7}.1^{9,13}]tricosa-1(20),3,5,7(23),9(22),10,12,17(21),18-nonaene-6-carboxamide], the GI50 in data set [1] amounted to 64.3 nM. In addition, the microsomal CLint at 1 μM in data set [2] (setting [3]) was 17.8 µL/min/mg; in data set [2] (setting [5]), less than 11.5 µL/min/mg; in data set [2] (setting [7]), 20.1 µL/min/mg. The half-life at 1 μM was 78 min in data set [2] (setting [4]), more than 120 min in data set [2] (setting [6]) and 69 min in data set [2] (setting [8]).

Turning to `[2H]C([2H])([2H])NC(=O)c1cnc(Nc2ccn(C)n2)cc1Nc1ccc2cnn(CC)c2c1OC` [Example 43, 4-((1-Ethyl-7-methoxy-1H-indazol-6-yl)amino)-N-(methyl-d3)-6-((1-methyl-1H-pyrazol-3-yl)amino)nicotinamide], the GI50 in data set [1] was found to be 85.2 nM. For the same compound, the microsomal CLint at 1 μM came out at 30.8 µL/min/mg in data set [2] (setting [3]), 9.58 µL/min/mg in data set [2] (setting [5]) and 48.5 µL/min/mg in data set [2] (setting [7]). In addition, the figures for the half-life at 1 μM in data set [2] (setting [4]), in data set [2] (setting [6]) and in data set [2] (setting [8]) were 45 min, 145 min and 28.6 min, respectively.

In the case of `[2H]C([2H])([2H])NC(=O)c1cnc2nc1Nc1cc(cc(-c3ncn(C)n3)c1OC)COCc1cc(F)cc(c1)N2` [Example 79, 19-Fluoro-10-methoxy-N-(methyl-d3)-11-(1-methyl-1H-1,2,4-triazol-3-yl)-15-oxa-2,4,8,23-tetraazatetracyclo[15.3.1.1^{3,7}.1^{9,13}]tricosa-1(21),3,5,7(23),9(22),10,12,17,19-nonaene-6-carboxamide], the GI50 in data set [1] amounted to 40.3 nM. Besides, the microsomal CLint at 1 μM was 8.97 µL/min/mg in data set [2] (setting [3]), 27.8 µL/min/mg in data set [2] (setting [5]) and 26.2 µL/min/mg in data set [2] (setting [7]). Moreover, the half-life at 1 μM worked out at 155 min in data set [2] (setting [4]), 50 min in data set [2] (setting [6]) and 52.9 min in data set [2] (setting [8]).

With `[2H]C([2H])([2H])NC(=O)c1cnc2cc1Nc1cc(cc(-c3ncn(C)n3)c1OC)COCc1nc(ccc1F)N2` [Example 66, 18-Fluoro-10-methoxy-N-(methyl-d3)-11-(1-methyl-1H-1,2,4-triazol-3-yl)-15-oxa-2,4,8,21-tetraazatetracyclo[15.3.1.1^{3,7}.1^{9,13}]tricosa-1(20),3,5,7(23),9(22),10,12,17(21),18-nonaene-6-carboxamide], in data set [1], the GI50 came to 42.1 nM. In addition, the microsomal CLint at 1 μM in data set [2] (setting [3]) was determined as 23.1 µL/min/mg; in data set [2] (setting [5]), 6.48 µL/min/mg; in data set [2] (setting [7]) it was 6.84 µL/min/mg. Moreover, the half-life at 1 μM in data set [2] (setting [4]) amounted to 59.9 min; in data set [2] (setting [6]), 214 min; in data set [2] (setting [8]), 203 min.

As to `[2H]C([2H])([2H])NC(=O)c1cnc2nc1Nc1cc(cc(-c3ncn(C)n3)c1OC)COCc1cc(cc(F)c1F)N2` [Example 78, 18,19-Difluoro-10-methoxy-N-(methyl-d3)-11-(1-methyl-1H-1,2,4-triazol-3-yl)-15-oxa-2,4,8,23-tetraazatetracyclo[15.3.1.1^{3,7}.1^{9,13}]tricosa-1(20),3,5,7(23),9(22),10,12,17(21),18-nonaene-6-carboxamide], the GI50 in data set [1] was determined as 46.5 nM. Besides, the microsomal CLint at 1 μM in data set [2] (setting [3]) is 8.5 µL/min/mg; in data set [2] (setting [5]), 22 µL/min/mg; in data set [2] (setting [7]), 21.4 µL/min/mg. Further, the half-life at 1 μM in data set [2] (setting [4]) is 163 min; in data set [2] (setting [6]), 63 min; in data set [2] (setting [8]), 64.7 min.

With `[2H]C([2H])([2H])NC(=O)c1nnc2cc1Nc1cc(cc(-c3ncn(C)n3)c1OC)CN(C)Cc1nc(ccc1F)N2` [Example 72, 18-Fluoro-10-methoxy-N-(methyl-d3)-15-methyl-11-(1-methyl-1H-1,2,4-triazol-3-yl)-2,4,5,8,15,21-hexaazatetracyclo[15.3.1.1^{3,7}.1^{9,13}]tricosa-1(20),3,5,7(23),9(22),10,12,17(21),18-nonaene-6-carboxamide], the GI50 in data set [1] worked out at 249 nM. Also, the microsomal CLint at 1 μM worked out at 16.2 µL/min/mg in data set [2] (setting [3]), 16.9 µL/min/mg in data set [2] (setting [5]) and 87 µL/min/mg in data set [2] (setting [7]). Besides, the half-life at 1 μM was 85.6 min in data set [2] (setting [4]), 82.2 min in data set [2] (setting [6]) and 15.9 min in data set [2] (setting [8]).

For `[2H]C([2H])([2H])NC(=O)c1cnc(NC(=O)C2CC2)cc1Nc1cn(CCOC)c2ccn(C(C)C(F)(F)F)c(=O)c12` (centres unmarked) [Example 201, 6-(Cyclopropanecarboxamido)-4-((1-(2-methoxyethyl)-4-oxo-5-(1,1,1-trifluoropropan-2-yl)-4,5-dihydro-1H-pyrrolo[3,2-c]pyridin-3-yl)amino)-N-(methyl-d3)nicotinamide], the GI50 in data set [1] was found to be 162 nM. Further, in data set [2] (setting [5]), the microsomal CLint at 1 μM worked out at 64.4 µL/min/mg. Moreover, in data set [2] (setting [6]), the half-life at 1 μM came out at 21.5 min.

For the compound `[2H]C([2H])([2H])NC(=O)c1cnc(Nc2cc(F)c(F)cn2)cc1Nc1cn(C)c2c(F)cn(C)c(=O)c12` [Example 121, 6-((4,5-Difluoropyridin-2-yl)amino)-4-((7-fluoro-1,5-dimethyl-4-oxo-4,5-dihydro-1H-pyrrolo[3,2-c]pyridin-3-yl)amino)-N-(methyl-d3)nicotinamide], the GI50 in data set [1] came out at 42.2 nM. The microsomal CLint at 1 μM worked out at 19.9 µL/min/mg in data set [2] (setting [3]), 135 µL/min/mg in data set [2] (setting [5]) and 115 µL/min/mg in data set [2] (setting [7]). For the same compound, the half-life at 1 μM was found to be 69.6 min in data set [2] (setting [4]), 10.2 min in data set [2] (setting [6]) and 12.1 min in data set [2] (setting [8]).

For the compound `COC(=O)c1cnc(NC(=O)C2CC2)cc1Nc1ncn2ccn(CC(F)(F)F)c(=O)c12` [Example 47, Methyl 6-(cyclopropanecarboxamido)-4-((8-oxo-7-(2,2,2-trifluoroethyl)-7,8-dihydroimidazo[1,5-a]pyrazin-1-yl)amino)nicotinate], the GI50 in data set [1] was 180 nM. For the same compound, the microsomal CLint at 1 μM in data set [2] (setting [3]) turned out to be 25 µL/min/mg; in data set [2] (setting [5]) it was 45.2 µL/min/mg; in data set [2] (setting [7]) it was 80 µL/min/mg. In addition, the half-life at 1 μM in data set [2] (setting [4]) turned out to be 55.4 min; in data set [2] (setting [6]) it was 30.7 min; in data set [2] (setting [8]), 17.3 min.

As for `[2H]C([2H])([2H])NC(=O)c1cnc2cc1Nc1cc(cc(-c3ncc(OC)cn3)c1OC)COCc1nc(ccc1F)N2` [Example 95, 18-Fluoro-10-methoxy-11-(5-methoxypyrimidin-2-yl)-N-(methyl-d3)-15-oxa-2,4,8,21-tetraazatetracyclo[15.3.1.1^{3,7}.1^{9,13}]tricosa-1(20),3,5,7(23),9(22),10,12,17(21),18-nonaene-6-carboxamide], the GI50 in data set [1] came to 53.1 nM. Besides, the microsomal CLint at 1 μM in data set [2] (setting [3]), in data set [2] (setting [5]) and in data set [2] (setting [7]) was less than 11.5 µL/min/mg throughout. In addition, the half-life at 1 μM in data set [2] (setting [4]), in data set [2] (setting [6]) and in data set [2] (setting [8]) was more than 120 min in each case.

With `[2H]C([2H])([2H])NC(=O)c1cnc2cc1Nc1cc(cc(-c3ncn(C)n3)c1OC)COCc1cc(F)cc(n1)N2` [Example 77, 19-Fluoro-10-methoxy-N-(methyl-d3)-11-(1-methyl-1H-1,2,4-triazol-3-yl)-15-oxa-2,4,8,21-tetraazatetracyclo[15.3.1.1^{3,7}.1^{9,13}]tricosa-1(21),3,5,7(23),9(22),10,12,17,19-nonaene-6-carboxamide], the GI50 in data set [1] amounted to 61.1 nM. Also, the microsomal CLint at 1 μM turned out to be 15.4 µL/min/mg in data set [2] (setting [3]), 4.59 µL/min/mg in data set [2] (setting [5]) and 12.2 µL/min/mg in data set [2] (setting [7]). Moreover, the half-life at 1 μM in data set [2] (setting [4]) turned out to be 90.2 min; in data set [2] (setting [6]), 302 min; in data set [2] (setting [8]), 114 min.

Take `[2H]C([2H])([2H])NC(=O)c1cnc(Nc2cccc(C#N)n2)cc1Nc1cn(C)c2c(Cl)cn(CC)c(=O)c12` [Example 163, 4-((7-Chloro-5-ethyl-1-methyl-4-oxo-4,5-dihydro-1H-pyrrolo[3,2-c]pyridin-3-yl)amino)-6-((6-cyanopyridin-2-yl)amino)-N-(methyl-d3)nicotinamide]: in data set [1], the GI50 amounted to 36.7 nM. For the same compound, the microsomal CLint at 1 μM in data set [2] (setting [3]) was 12.1 µL/min/mg; in data set [2] (setting [5]), 82.1 µL/min/mg; in data set [2] (setting [7]), 101 µL/min/mg. In addition, the half-life at 1 μM in data set [2] (setting [4]) came out at 114 min; in data set [2] (setting [6]) it was 16.9 min; in data set [2] (setting [8]) it was 13.7 min.
